Laboratory results published in US20030003491A1, “Method for detecting or quantifying environmental hormones” (priority 2000, published 2003).

System: LH receptor (LH-R) mRNA expression in rat granulosa cells
Assay: Microassay for dioxins using FSH-induced LH-R mRNA expression in rat granulosa cells (Northern blotting, densitometry)
Assay type: cell-based
Details: for amount of LH-R mRNA expressed relative to that without TCDD addition: normalised to GAPDH mRNA, N=3
Protocol: Rat granulosa cells were obtained from a juvenile female Wistar rat (purchased from Charles River Laboratories, Inc.) which had been injected with 2 mg of diethylstilbestrol (produced by Sigma Chemical Co.) dissolved in 0.1 ml of sesame oil once per day for 4 days. Specifically, the ovary of the juvenile female Wistar rat was removed and a hole was made in its follicle with a 25-gauge needle to take out granulosa cells. During this series of operations, the rat was treated according to the NIH guidelines (Biosafety in microbiological and biomedical laboratories). Then, the obtained granulosa cells were washed and centrifuged to collect them. The viability of the cells was determined by the known trypan blue exclusion method.
The obtained granulosa cells (viability: over 90%) were cultured in Ham's F-12/DME (1:1 vol/vol) (produced by Gibco Laboratories) containing 1.1 g/l NaHCO3, 40 mg/l gentamicin sulfate (produced by Sigma Chemical Co.), 1 mg/l Fungizone (produced by Gibco Laboratories) and 100 mg/l bovine serum albumin (BSA) on a collagen-coated plate in a moist atmosphere (5% CO2, 95% air) at 37° C. [Nakamura, M., et al., Endocrinology, 133, 538-544 (1993)]. The granulosa cells obtained by the culturing were used in Examples.
The rat granulosa cells obtained in Reference Example 1 (5×10^6 living cells) were cultured in 5 ml of a serum-free medium [Ham's F-12/DME (1:1 vol/vol)] on a plate of 60 mm diameter for 24 hours, and the resulting culture was allowed to stand separately in the presence of 30 ng/ml rat FSH (I-8) [obtained from National Hormone and Pituitary Distribution Program (Bethesda Md.)] and in the presence of FSH (30 ng/ml) and 2,3,7,8-tetrachlorodibenzop-dioxin (TCDD) [Sigma Chemical Co.] (1, 10 and 100 pmol/l). TCDD was used after being dissolved in dimethyl sulfoxide.
After culturing was stopped 24, 48 and 72 hours later, RNAs formed in the cells were extracted to obtain pellets of the RNA mixture according to the AGTC method [trade name: Isogen, produced by Nippon Gene Co., Ltd., Chomezynski, P. and Sacchi, N., Anal. Biochem., 162, 156-159 (1987)]. To inhibit RNase, 15 μg of the obtained pellets was dissolved in diethyl-pyrocarbonate-treated water. The resulting solution was subjected to denatured agarose gel electrophoresis and the RNAs were transferred to a nylon membrane (trade name: Biodyne, produced by ICN) to carry out Northern blotting analysis. A film (trade name: Kodak X-Omat, produced by Eastman Kodak Co.) was exposed to the nylon membrane according to the standard manual of a nucleic acid detection kit (produced by Boehringer Mannheim) for fluorescence detection using 2202 UnitroScan Laser Densitometer (produced by LKB Co., Ltd.) to determine the mRNAs.
Rat LH-R mRNA was prepared according to the description in Mol. Cell. Endocrinol., 82, 259-263 (1991). The obtained rat […] into the EcoRI site of Bluescript ks (+) vector, followed by subcloning and linearization with BglII [Nakamura, K., Nakamura, M., Igarashi, S., Miyamoto, K., Eto, Y., Ibuki, Y., and Minegishi, T., Endocrinology, 134, 2329-2335 (1994)]. Then, digoxigenin-labeled LH-R cRNA corresponding to nucleotide numbers 440 to 2560 of the rat LH-R mRNA was prepared by in vitro transcription using T3 RNA polymerase and an RNA-labeling kit.
Each of the rat LH-R mRNAs (5.4 kb) obtained in the above (1) was determined according to the luminescence intensity method. The luminescence intensity was measured with LKB 2202 UnitroScan Laser Densitometer (produced by LKB Co., Ltd.) using the probe prepared in the above (2).
The amount of each rat LH-R mRNA expressed was determined using the amount of GAPDH (glyceraldehyde 3-phosphate dehydrogenase) mRNA expressed as a reference value to obtain the relative value (%) based on the control [addition of only FSH (30 ng/ml)]. The data were expressed in terms of […] of the values obtained by carrying out culturing three times under the same conditions. […]

Compound: Clc1cc2c(cc1Cl)Oc1cc(Cl)c(Cl)cc1O2 [TCDD, 2,3,7,8-tetrachlorodibenzop-dioxin]
- expression of LH-R mRNA (Northern blotting) (1 pmol/l TCDD plus FSH 30 ng/ml, 48 hours): a little decrease
- expression of LH-R mRNA (Northern blotting) (10 pmol/l TCDD plus FSH 30 ng/ml, 48 hours): clearly inhibited
- amount of expressed LH-R mRNA versus FSH alone (Northern blotting) (10 pmol/l TCDD plus FSH 30 ng/ml, after 24 hours of standing): difference in the amount of expressed LH-R mRNA already appeared
- amount of LH-R mRNA expressed relative to that without TCDD addition (10 pmol/l TCDD plus FSH 30 ng/ml, after 24 hours): less than 50%
- amount of LH-R mRNA expressed relative to that without TCDD addition (10 pmol/l TCDD plus FSH 30 ng/ml, after 48 hours): less than 50%
- amount of LH-R mRNA expressed relative to that without TCDD addition (10 pmol/l TCDD plus FSH 30 ng/ml, after 72 hours): less than 50%
- concentration dependency of LH-R mRNA expression (densitometer) (1, 10, 100 pmol/l TCDD plus FSH 30 ng/ml, 48 hours): decreased in a manner dependent upon the amount of TCDD added
